This note sets out measurements from US20200189989A1, “APPLICATION OF SYRINGIC ACID IN PROMOTING NITRIFICATION INHIBITION ACTIVITY OF DECANEDIOL” (Institute of Soil Science, Chinese Academy of Sciences, priority 2018, published 2020).

What all share (assay type): cell-based
For assay [1], the system named is Nitrosomonas europaea (NBRC 14298). Briefly: Nitrification activity inhibition experiment, Nitrosomonas europaea (NO2- production, improved Griess method). The note with it: 2 hours, 25° C., dark. As for the experimental part: Standard: a syringic acid standard was purchased from Sigma-Aldrich (St. Louis, Mo., USA), and the solid powder thereof was weighed and dissolved in DMSO. A 1,9-decanediol standard was purchased from WuXi AppTec, and the solid powder thereof was dissolved in DMSO while frozen over the dry ice (the 1,9-decanediol standard was a viscous liquid substance under normal temperature). Microbial strains: Nitrosomonas europaea (NBRC 14298) was purchased from Biological Resource Center, NITE, Japan. Microbial culture medium: a HEPES medium, which contained 2.5 g of (NH4)2SO4, 0.5 g of KH2PO4, 11.92 g of HEPES, 0.5 g of NaHCO3, 100 mg of MgSO4.7H2O, 5 mg of CaCl2.2H2O, and 75 mg of Fe-EDTA per 1 L liquid medium, at pH 7.8-8.0. Culture of microorganisms: Nitrosomonas europaea was inoculated in the HEPES medium and cultured at 30° C. and 200 rpm under a dark condition (aerobic), and the Nitrosomonas europaea enters a stable period 7-9 days after transfer each time. Nitrification activity inhibition experiment: The bacterial solution cultured for 7 days was collected, centrifuged at 5000 g for 20 min, and resuspended in a fresh and sterile HEPES medium until the OD600 reached about 1.0, with a concentration multiple of 40-50 times. Taken was a 1.5 mL sterile centrifuge tube, and it was sequentially added with 195 μL of sterile water, 5 μL of different concentrations of solutions of syringic acid and 1,9-decanediol in DMSO, 100 μL of the fresh and sterile HEPES medium, and 200 μL of a resuspended bacterial solution, and then cultured in a water bath at 25° C. under a dark condition for 2 hours. Then the mixed system was added with 20 μL of 0.1M Allylthiourea to terminate the nitrosification. […] of the reacted mixture was added into a 10 mL colorimetric tube, diluted to about 5 mL with deionized water, added with 1 mL of a sulfanilic acid solution, shaken well and then subjected to standing for 2-8 min, then added with 1 mL of a hydrochloric acid N-(1-naphthyl)-ethylenediamine solution, shaken well, diluted to 10 mL with water to obtain a constant volume. Deionized water was used as a reference, and the absorbances were determined at a wavelength of 540 nm. The reticle of NO2^− was made in the same manner to quantify the NO2^− generated in the sample system, and the sample inhibition rate was calculated by the following formula. This determination method was an improved Griess method, which could be referred to the national standard “determination of nitrite in the wet precipitation -N-(1-naphthyl)-1,2-diaminoethane spectrophotometry”. Nitrosification inhibition rate (%)=(1-the produced amount of NO2^− of the sample/the produced amount of NO2^− of a blank)×100%
Background: The Griess reaction detects nitrite, a stable product of nitric oxide.

Assay [2] deals with Nitrosomonas stercoris (NBRC 110753). The assay is described as follows: Nitrification activity inhibition experiment, Nitrosomonas stercoris (NO2- production, improved Griess method). The note with it: 2 hours, 25° C., dark. The method, then: Nitrification activity inhibition experiment: The bacterial solution cultured for 7 days was collected, centrifuged at 5000 g for 20 min, and resuspended in a fresh and sterile HEPES medium until the OD600 reached about 1.0, with a concentration multiple of 40-50 times. Taken was a 1.5 mL sterile centrifuge tube, and it was sequentially added with 195 μL of sterile water, 5 μL of different concentrations of solutions of syringic acid and 1,9-decanediol in DMSO, 100 μL of the fresh and sterile HEPES medium, and 200 μL of a resuspended bacterial solution, and then cultured in a water bath at 25° C. under a dark condition for 2 hours. Then the mixed system was added with 20 μL of 0.1M Allylthiourea to terminate the nitrosification. […] of the reacted mixture was added into a 10 mL colorimetric tube, diluted to about 5 mL with deionized water, added with 1 mL of a sulfanilic acid solution, shaken well and then subjected to standing for 2-8 min, then added with 1 mL of a hydrochloric acid N-(1-naphthyl)-ethylenediamine solution, shaken well, diluted to 10 mL with water to obtain a constant volume. Deionized water was used as a reference, and the absorbances were determined at a wavelength of 540 nm. The reticle of NO2^− was made in the same manner to quantify the NO2^− generated in the sample system, and the sample inhibition rate was calculated by the following formula. This determination method was an improved Griess method, which could be referred to the national standard “determination of nitrite in the wet precipitation -N-(1-naphthyl)-1,2-diaminoethane spectrophotometry”. Nitrosification inhibition rate (%)=(1-the produced amount of NO2^− of the sample/the produced amount of NO2^− of a blank)×100% The selection and formulation of the standard were the same as those of Embodiment 1. Microbial Strains: Nitrosomonas stercoris (NBRC 110753) was purchased from Biological Resource Center, NITE, Japan. The microbial culture medium and microbial culture were the same as those of Embodiment 1. Nitrification activity inhibition experiment: The bacterial solution of Nitrosomonas stercoris cultured for 7 days was collected, centrifuged at 5000 g for 20 min, and resuspended in a fresh and sterile HEPES medium until the OD600 reached about 1.0, with a concentration multiple of 40-50 times. Taken was a 1.5 mL sterile centrifuge tube, and it was sequentially added with 195 μL of sterile water, 5 μL of different concentrations of solutions of syringic acid and 1,9-decanediol in DMSO, 100 μL of the fresh and sterile HEPES medium, and 200 μL of a resuspended bacterial solution, and then cultured in a water bath at 25° C. under a dark condition for 2 hours. Then the mixed system was added with 20 μL of 0.1M Allylthiourea to terminate the nitrosification. […]

Assay [3] concerns Nitrosomonas. The assay is described as follows: Nitrosification inhibition activity of syringic acid alone and as promoter of 1,9-decanediol (summary statement). The text has this:
The root exudates of 19 rice varieties are collected, concentrated, and determined for their nitrosification inhibition activities by using Nitrosomonas europaea. The varieties with significant effects are further screened out from them, to select a variety of which the root exudate has a significant inhibitory effect and a variety of which the root exudate has an effect opposite to the former, and then they are subjected to GC/MS identification for components thereof. By component comparison of the two varieties, syringic acid (4-Hydroxy 3,5-dimethoxybenzoic acid, with the molecular weight of 198.18) is identified in the root exudate of the rice variety Wuyunjing 7 having a significant inhibitory effect.

On to `CC(O)CCCCCCCCO` (stereo not shown) [1,9-decanediol], for which the “inhibition rate for the nitrosification process of Nitrosomonas europaea” value in assay [1] (1,9-decanediol added alone) is on record as 41.2%. Besides, the nitrification inhibition rate in assay [1] (1,9-decanediol plus syringic acid at 10 μ·mL^−1) worked out at 51.7%; in assay [1] (1,9-decanediol plus syringic acid at 100 μ·mL^−1), 61.1%; in assay [1] (1,9-decanediol plus syringic acid at 500 μ·mL^−1) it was 69.2%. In addition, the “inhibition rate (nitrification inhibition effect on Nitrosomonas stercoris)” value in assay [2] (1,9-decanediol plus 10 μg·mL^−1 of syringic acid) stood at 60.5%; in assay [2] (1,9-decanediol plus 100 μg·mL^−1 of syringic acid), 70.2%; in assay [2] (1,9-decanediol plus 500 μg·mL^−1 of syringic acid), 89.9%; in assay [2] (1,9-decanediol without syringic acid), 51.5%.
Regarding `COc1cc(C(=O)O)cc(OC)c1O` [syringic acid, 4-Hydroxy 3,5-dimethoxybenzoic acid], the “inhibitory activity to the Nitrosomonas” value in assay [3] (syringic acid alone) is “no significant inhibitory activity”. Further, the “effect concentration for promoting the inhibition of 1,9-decanediol to the nitrosification activity of the Nitrosomonas” value in assay [3] (syringic acid combined with 1,9-decanediol) lay within 10 to 500 µg/mL.
